Test results from the supplement of paper PMC10307832.

What was measured:
Assay in all cases: relative viability (nuclei count vs DMSO), 5 days (fraction); higher = more cells survive
[1] = compound: COc1cc2ncn(-c3cc(OCc4ccccc4C(F)(F)F)c(C(N)=O)s3)c2cc1OC + CS(=O)(=O)CCNCc1ccc(-c2ccc3ncnc(Nc4ccc(OCc5cccc(F)c5)c(Cl)c4)c3c2)o1 [Lapatinib] (partner 2 µM)
Summary of the method: (§1)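 After 5 days of treatment, lung cancer cells in 1536-well plates were fixed and stained in a single step (final 0.05% Triton X-100, 1% formaldehyde, 1 ug/ml Hoechst) and their nuclei counted on 4× images. Treatment had been applied by pin tool the day after seeding as one drug alone or as a fixed anchor-drug dose with five library-drug doses (not always all listed) in √10 steps. Relative viability is the nuclei count of treated wells divided by that of vehicle wells, and values are medians of duplicate plates.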

[2] = compound: COc1cc2ncn(-c3cc(OCc4ccccc4C(F)(F)F)c(C(N)=O)s3)c2cc1OC + Cc1nc(Nc2ncc(C(=O)Nc3c(C)cccc3Cl)s2)cc(N2CCN(CCO)CC2)n1 [Dasatinib] (partner 0.075 µM)
Summary of the method: as §1

[3] = compound: COc1cc2ncn(-c3cc(OCc4ccccc4C(F)(F)F)c(C(N)=O)s3)c2cc1OC + Nc1nc2[nH]cc(CCc3ccc(C(=O)N[C@@H](CCC(=O)O)C(=O)O)cc3)c2c(=O)[nH]1 [Pemetrexed] (partner 0.2 µM)
Summary of the method: as §1

[4] = compound: COc1cc2ncn(-c3cc(OCc4ccccc4C(F)(F)F)c(C(N)=O)s3)c2cc1OC + C[C@@H](Oc1cc(-c2cnn(C3CCNCC3)c2)cnc1N)c1c(Cl)ccc(F)c1Cl [Crizotinib] (partner 1 µM)
Summary of the method: as §1

Cell Line	relative viability ([1]; first compound 0.05 µM)	relative viability ([1]; first compound 0.1581 µM)	relative viability ([1]; first compound 0.5 µM)	relative viability ([1]; first compound 1.581 µM)	relative viability ([1]; first compound 5 µM)	relative viability ([2]; first compound 0.05 µM)	relative viability ([2]; first compound 0.1581 µM)	relative viability ([2]; first compound 0.5 µM)	relative viability ([2]; first compound 1.581 µM)	relative viability ([2]; first compound 5 µM)	relative viability ([3]; first compound 0.05 µM)	relative viability ([3]; first compound 0.1581 µM)	relative viability ([3]; first compound 0.5 µM)	relative viability ([3]; first compound 1.581 µM)	relative viability ([3]; first compound 5 µM)	relative viability ([4]; first compound 0.05 µM)	relative viability ([4]; first compound 0.1581 µM)	relative viability ([4]; first compound 0.5 µM)	relative viability ([4]; first compound 1.581 µM)	relative viability ([4]; first compound 5 µM)
LCLC-97TM1	0.802	0.893	0.343	0.175	0.161	0.743	0.74	0.761	0.214	0.128	0.215	0.217	0.147	0.11	0.0881	0.419	0.331	0.165	0.152	0.145
HARA	0.74	0.797	0.7	0.169	0.0753	0.242	0.299	0.284	0.0989	0.0669	0.242	–	0.24	0.176	0.126	1.18	0.981	0.786	0.275	0.119
HCC-78	0.75	0.429	0.542	0.566	0.804	0.463	0.537	0.306	0.317	0.206	0.967	0.903	0.895	0.939	0.87	0.314	0.345	0.245	0.257	0.257
NCI-H1666	0.905	0.674	0.298	0.229	0.325	0.825	0.758	0.518	0.316	0.271	0.827	0.83	0.651	0.52	0.447	0.917	0.913	0.606	0.289	0.326
NCI-H2347	0.943	0.788	0.858	0.507	0.62	0.32	0.258	0.278	0.228	0.258	0.455	0.434	0.403	0.364	0.33	0.58	0.736	0.603	0.537	0.385
PC-14	0.33	0.353	0.318	–	0.278	0.201	0.235	0.106	0.0176	0.0233	0.132	0.148	0.126	0.048	0.0388	0.83	0.828	0.564	–	0.411
NCI-H2023	0.936	0.975	0.274	0.0863	0.095	0.566	0.532	0.355	0.096	0.0804	0.202	0.2	0.177	0.107	0.114	0.605	0.67	0.424	0.138	0.0906
201T	1.04	1.03	1.01	0.708	0.299	0.543	0.536	0.546	0.45	0.244	0.355	0.319	0.29	0.303	0.192	1.05	1.08	0.967	0.878	0.293
NCI-H1915	1.03	0.961	0.803	0.134	0.0963	0.365	0.281	0.316	0.0798	0.0572	0.478	0.489	0.37	0.137	0.0826	0.916	0.898	0.639	0.123	0.102
NCI-H2009	0.868	0.777	0.318	0.169	0.146	0.297	0.256	0.152	0.128	0.0782	0.983	0.884	0.43	0.218	0.26	1.01	0.825	0.445	0.208	0.253
BEN	0.696	0.526	0.56	0.256	0.212	0.363	0.327	0.29	0.186	0.229	0.702	0.706	0.667	0.515	0.388	0.814	0.839	0.687	0.268	0.526
PC-3 [JPC-3]	0.443	0.508	0.37	0.227	0.263	0.943	0.98	0.767	0.174	0.168	1.31	1.1	0.611	0.28	0.254	0.987	1.01	0.778	0.34	0.27
SK-MES-1	0.445	0.459	0.482	–	0.335	0.338	0.367	0.184	0.129	0.116	0.903	0.829	0.419	0.195	0.167	0.971	0.861	0.627	–	0.476
NCI-H838	1.02	1.04	0.638	0.114	0.101	0.302	0.291	0.224	0.255	0.156	0.216	0.278	0.221	0.143	0.114	1.02	0.932	0.492	0.124	0.111
NCI-H1355	0.966	0.964	0.771	0.22	0.152	0.707	0.739	0.491	0.163	0.143	1.12	0.924	0.88	0.223	0.141	1.08	1.03	0.768	0.258	0.157
NCI-H1975	0.862	0.809	0.411	0.189	0.161	0.415	0.335	0.207	0.126	0.109	0.3	0.274	0.232	0.188	0.159	1.04	0.913	0.462	0.212	0.2
LK-2	1.01	0.841	0.437	0.217	0.222	0.282	0.369	0.262	0.154	0.151	0.386	0.268	0.168	0.115	0.0951	0.247	0.247	0.245	0.209	0.204

Cell Line	relative viability ([1]; first compound 0.05 µM)	relative viability ([1]; first compound 0.1581 µM)	relative viability ([1]; first compound 0.5 µM)	relative viability ([1]; first compound 1.581 µM)	relative viability ([1]; first compound 5 µM)	relative viability ([2]; first compound 0.05 µM)	relative viability ([2]; first compound 0.1581 µM)	relative viability ([2]; first compound 0.5 µM)	relative viability ([2]; first compound 1.581 µM)	relative viability ([2]; first compound 5 µM)	relative viability ([3]; first compound 0.05 µM)	relative viability ([3]; first compound 0.1581 µM)	relative viability ([3]; first compound 0.5 µM)	relative viability ([3]; first compound 1.581 µM)	relative viability ([3]; first compound 5 µM)	relative viability ([4]; first compound 0.05 µM)	relative viability ([4]; first compound 0.1581 µM)	relative viability ([4]; first compound 0.5 µM)	relative viability ([4]; first compound 1.581 µM)	relative viability ([4]; first compound 5 µM)
NCI-H727	0.803	0.694	0.541	0.338	0.296	0.383	0.349	0.362	0.225	0.329	–	–	–	–	–	0.707	0.901	0.58	0.247	0.266
NCI-H441	–	–	–	–	–	0.573	0.538	0.265	0.174	0.168	0.248	0.27	0.189	0.148	0.158	0.634	0.617	0.287	0.152	0.218
EBC-1	0.195	0.216	0.199	0.172	0.176	–	–	–	–	–	–	–	–	–	–	0.19	0.204	0.17	0.169	0.14
HCC-44	1.06	0.976	0.987	0.0934	0.171	–	–	–	–	–	0.633	0.625	0.685	0.338	0.342	0.818	0.815	0.503	0.123	0.104
NCI-H1648	–	–	–	–	–	–	–	–	–	–	0.855	0.805	0.513	0.243	0.219	–	–	–	–	–
SW 900	–	–	–	–	–	0.545	0.604	0.5	0.328	0.0938	0.453	0.544	0.408	0.254	0.187	–	–	–	–	–
ABC-1	1.18	0.723	1.11	1.14	1.2	0.539	0.542	0.469	0.276	0.239	–	–	–	–	–	1.34	0.988	0.875	0.152	0.291
NCI-H1793	0.741	0.84	0.409	0.306	0.209	0.379	0.382	0.3	0.15	0.141	0.788	1.01	0.276	0.164	0.107	–	–	–	–	–
NCI-H1395	0.928	1.37	0.818	0.354	0.41	0.413	0.438	0.455	0.358	0.306	0.761	0.828	0.663	0.395	0.27	–	–	–	–	–
NCI-H1299	0.984	0.92	0.599	0.314	0.312	–	–	–	–	–	–	–	–	–	–	0.982	0.939	0.572	0.305	0.329
ChaGo-K-1	–	–	–	–	–	0.629	0.332	0.574	0.17	0.138	0.263	0.251	0.232	0.175	0.153	1.07	0.944	0.831	0.434	0.38
NCI-H522	–	–	–	–	–	0.937	0.846	0.814	0.628	0.369	0.965	0.842	0.742	0.812	0.377	–	–	–	–	–
A549	0.984	0.862	0.0918	0.0675	0.065	–	–	–	–	–	–	–	–	–	–	0.864	0.612	0.104	0.0479	0.102
IA-LM	0.617	0.49	0.0998	0.083	0.0955	–	–	–	–	–	–	–	–	–	–	0.717	0.395	0.198	0.0759	0.0777
LCLC-103H	–	–	–	–	–	0.466	0.522	0.341	0.176	0.175	0.449	0.48	0.442	0.27	0.195	0.999	1.11	0.851	0.523	0.267
Calu-6	1.02	0.872	0.315	0.129	0.128	–	–	–	–	–	–	–	–	–	–	0.778	0.755	0.288	0.107	0.106
